Measured values reported in US20150329537A2, “CDK9 INHIBITORS IN THE TREATMENT OF MIDLINE CARCINOMA” (LEADDISCOVERY CENTER GMBH, priority 2011, published 2015).

Assays:
HCC2429 cells = assay: Proliferation / cell viability assay (Cell Titer Glo); assay type: cell-based; conditions: FIG. 1; for effect on proliferation of HCC2429 cells (in words): dose response experiments
Protocol: Proliferation assays were performed as described below under materials and methods. […] (Cpd B1 and Ro-3306) were applied at concentrations between 30 and 0.0137 μM. After 72 h incubation with compounds ATP content/proliferation was determined employing CTG (Promega). Relative proliferation values (compared to vehicle control) were used to calculate IC50 values (Excel fit; algorithm #205). IC50s of the respective compound (Y-axis; logarithmic scale) on proliferation of various cell lines (X-axis) are depicted in black bars. White bars indicate that an IC50 could not be determined due to too low activity and therefore was higher than the highest applied concentration in the assays (30 μM). IC50s of compounds on CDK9 inhibitor sensitive cell line HCC2429 are presented in grey bars.
Cell lines were maintained in RPMI 1640 cell culture medium+glutamine (PAN Biotech GmbH, Aidenbach, Germany; order no. P04-22100; P04-05500) supplemented with 10% fetal calf serum “Gold” (PAA Laboratories GmbH, Pasching, Austria; order no. A15-151) and grown in a humidified atmosphere at 37° C., 5% C02. As a first step, an optimal cell density for each cell line was determined to guarantee linearity. For viability assays with compounds, cells were then seeded at a density of 200 to 1000 per well in 25 μl in 384-well plates (Greiner Bio-One, Frickenhausen, Germany; order no. 781080). After overnight incubation at 37° C./5% CO2, 25 nl or 75 nl compounds were added to each sample well by using BIOMEK FX^P Laboratory Automation Workstation (Beckman Coulter, USA). Wells with cells and 0.1% or 0.3% DMSO in culture medium were used as positive controls, wells with cells and 10 μM staurosporine (Selleck Chemicals, Huston, USA) in culture medium were used as negative controls. Upon incubation with compounds for 72 h at 37° C./5% CO2 25 μl Cell Titer Glo reagent (Promega, Madison, USA, order no. G7573; 1:2 diluted with cell culture medium) was added to each well to determine cell viability. […] Luminescence was measured by Envision Plate Reader (Perkin Elmer, USA). […]

CDK9/CycT = biological target: T1, CDK9/CycT (Homo sapiens, UniProt P50750); assay: Radiometric protein kinase assay (33PanQinase Activity Assay); assay type: biochemical; conditions: 10 μM compound, compared to vehicle control, 23 different kinases, FIG. 3
T1 construct: purchased ProQinase
Protocol: A similar experimental procedure is performed when the resulting activity within ^33PanQinase® assay is done. In advance buffers are prepared but in this case the pipetting sequence is first ATP solution diluted with assay buffer, DMSO or compound solution. The reaction (1 h at 30° C.) is started by addition of a substrate-kinase mix. During the incubation the kinase phosphorylates the substrate (different for each kinase). Due to the fact that the ATP solution contains ^33P labelled ATP the substrate proteins are labeled with ^33P. The reaction is stopped by addition of excess H3PO4. If the reaction is performed in plates binding substrate proteins, said plates are washed to reduce unspecific signals (mainly not used ATP). The incorporation of ^33P into substarte proteins is a direct measure of activity of the respective kinase. Therefore, the incorporated radioactivity is detected by scintillation counting. Data is evaluated, processed and analyzed as described for the LANCE assays.
A radiometric protein kinase assay (33PanQinase® Activity Assay) was used for measuring the kinase activity of the […] protein kinases. […]
The reaction cocktails were incubated at 30° C. for 60 minutes. […] Incorporation of 33Pi (counting of “cpm”) was determined with a microplate scintillation counter (Microbeta, Wallac).

[1] = test system: Brd4-Nut mutated cell lines (HCC2429, TY-82, 690100, 143100); assay: Proliferation assay on Brd4-Nut mutated versus wild type cell lines; assay type: cell-based; conditions: mutated: HCC2429, TY-82, 690100, 143100; wild type: Hela, HCC366, H460, HCC1143, hPBMCs; FIG. 4
Protocol: The proliferation results are presented as IC50 in μM. First, the anti-proliferative effect of CDK9 inhibitors is much more pronounced on BrdNut mutated cell lines (=sensitive cell lines).
Cell lines were maintained in RPMI 1640 cell culture medium+glutamine (PAN Biotech GmbH, Aidenbach, Germany; order no. P04-22100; P04-05500) supplemented with 10% fetal calf serum “Gold” (PAA Laboratories GmbH, Pasching, Austria; order no. A15-151) and grown in a humidified atmosphere at 37° C., 5% C02. As a first step, an optimal cell density for each cell line was determined to guarantee linearity. For viability assays with compounds, cells were then seeded at a density of 200 to 1000 per well in 25 μl in 384-well plates (Greiner Bio-One, Frickenhausen, Germany; order no. 781080). After overnight incubation at 37° C./5% CO2, 25 nl or 75 nl compounds were added to each sample well by using BIOMEK FX^P Laboratory Automation Workstation (Beckman Coulter, USA). Wells with cells and 0.1% or 0.3% DMSO in culture medium were used as positive controls, wells with cells and 10 μM staurosporine (Selleck Chemicals, Huston, USA) in culture medium were used as negative controls. […] Luminescence was measured by Envision Plate Reader (Perkin Elmer, USA). […]

T1 sequence (P50750 whole entry): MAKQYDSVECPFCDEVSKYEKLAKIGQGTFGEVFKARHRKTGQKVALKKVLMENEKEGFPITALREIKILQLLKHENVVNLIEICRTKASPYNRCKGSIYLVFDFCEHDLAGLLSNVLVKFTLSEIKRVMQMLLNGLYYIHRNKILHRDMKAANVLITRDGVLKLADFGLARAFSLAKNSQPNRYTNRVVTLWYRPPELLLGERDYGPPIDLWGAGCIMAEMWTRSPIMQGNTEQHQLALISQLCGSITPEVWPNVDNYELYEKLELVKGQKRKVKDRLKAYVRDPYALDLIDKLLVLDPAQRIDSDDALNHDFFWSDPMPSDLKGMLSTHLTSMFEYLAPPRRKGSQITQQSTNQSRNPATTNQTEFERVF
T1 sequence (O60563 whole entry partner): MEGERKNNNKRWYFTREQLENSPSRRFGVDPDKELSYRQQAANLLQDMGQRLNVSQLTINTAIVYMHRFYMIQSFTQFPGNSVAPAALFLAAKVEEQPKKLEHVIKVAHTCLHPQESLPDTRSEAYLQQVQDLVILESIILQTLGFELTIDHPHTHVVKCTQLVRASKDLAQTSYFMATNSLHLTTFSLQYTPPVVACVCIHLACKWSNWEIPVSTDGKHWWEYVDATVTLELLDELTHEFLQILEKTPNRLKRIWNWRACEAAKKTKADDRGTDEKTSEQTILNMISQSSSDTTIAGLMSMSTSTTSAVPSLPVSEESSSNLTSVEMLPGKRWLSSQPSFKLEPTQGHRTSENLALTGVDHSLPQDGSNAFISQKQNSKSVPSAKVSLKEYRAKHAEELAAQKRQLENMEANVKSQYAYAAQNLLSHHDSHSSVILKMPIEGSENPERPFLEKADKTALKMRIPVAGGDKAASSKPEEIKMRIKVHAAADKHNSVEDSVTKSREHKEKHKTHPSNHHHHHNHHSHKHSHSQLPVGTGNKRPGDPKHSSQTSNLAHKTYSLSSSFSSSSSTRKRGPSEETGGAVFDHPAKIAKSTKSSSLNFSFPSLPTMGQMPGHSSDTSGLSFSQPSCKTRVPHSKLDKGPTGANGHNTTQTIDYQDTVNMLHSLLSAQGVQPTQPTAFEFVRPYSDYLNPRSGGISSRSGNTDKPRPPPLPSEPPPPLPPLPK

inhibition of CDK9 kinase activity, residual activity (in words) (CDK9/CycT) | IC50 (HCC2429 cells; 72 h incubation, ATP content/proliferation by CTG, 30 to 0.0137 μM) | Structure (SMILES) | effect on proliferation of HCC2429 cells (in words) (HCC2429 cells) | proliferation inhibition in mutated, sensitive cell lines compared with wild type cell lines (in words) [1]
inhibits only CDK9 with high potency |  | COc1ccccc1-c1ncnc(Nc2cccc(CS(N)(=O)=O)c2)n1 [Cpd B1, 3-[(4-(2-Methoxyphenyl)-1,3,5-triazin-2-yl)amino] benzenemethanesulfonamide] | potently affected proliferation of HCC2429 cells | 
 |  | COc1ccccc1-c1cc(Nc2cccc(CS(N)(=O)=O)c2)ncn1 [1073485-20-7P, 3-[[6-(2-methoxyphenyl)-4-pyrimidinyl]amino]-Benzenemethanesulfonamide] |  | much more potent in mutated, sensitive cell lines
 | > 10 µM | O=C1NC(=NCc2cccs2)S/C1=C\c1ccc2ncccc2c1 [Ro-3306] | did not show comparable effects | 
